# According to US8088815B2, “Spiroindolinone pyrrolidines” (Hoffman-La Roche Inc., priority 2009, dated 2012):
# Target: interaction between p53 and MDM2 proteins (Homo sapiens, UniProt Q00987)
# Test: HTRF assay of inhibition of the p53-MDM2 interaction (GST-MDM2 / biotinylated p53 peptide)
# Type: binding
# Settings: recombinant GST-tagged MDM2 and biotinylated p53 peptide, bsa:0.02%
# Sequence of interaction between p53 and MDM2 proteins (Q00987 whole entry): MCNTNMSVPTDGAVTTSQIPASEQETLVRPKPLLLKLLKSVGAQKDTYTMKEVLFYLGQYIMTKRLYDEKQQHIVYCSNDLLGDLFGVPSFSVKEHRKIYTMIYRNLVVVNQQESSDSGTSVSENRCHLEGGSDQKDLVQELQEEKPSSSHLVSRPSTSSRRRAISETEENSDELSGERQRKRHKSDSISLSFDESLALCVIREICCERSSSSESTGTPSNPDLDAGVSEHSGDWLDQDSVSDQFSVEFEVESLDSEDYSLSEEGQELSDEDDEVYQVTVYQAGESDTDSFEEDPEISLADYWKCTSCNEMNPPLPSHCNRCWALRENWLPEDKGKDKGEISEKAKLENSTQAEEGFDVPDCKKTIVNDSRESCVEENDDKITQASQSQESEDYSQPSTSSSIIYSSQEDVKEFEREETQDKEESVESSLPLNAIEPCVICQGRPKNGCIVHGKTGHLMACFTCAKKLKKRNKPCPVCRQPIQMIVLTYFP
row,SMILES,IC50 [nM]
1,"COc1cc(C(N)=O)ccc1NC(=O)[C@@H]1N[C@@H](CC(C)(C)C)[C@@]2(C(=O)Nc3cc(Cl)c(F)cc32)[C@H]1c1cccc(Cl)c1F (racemic) [Example 113, rac-(2′S,3′R,4′S,5′R)-6-chloro-4′-(3-chloro-2-fluoro-phenyl)-2′-(2,2-dimethyl-propyl)-5-fluoro-2-oxo-1,2-dihydro-spiro[indole-3,3′-pyrrolidine]-5′-carboxylic acid (4-carbamoyl-2-methoxy-phenyl)-amide]",9
2,"COc1cc(C#N)ccc1NC(=O)[C@@H]1N[C@@H](CC(C)(C)C)[C@@]2(C(=O)Nc3cc(Cl)ccc32)[C@H]1c1cc(F)cc(Cl)c1 (racemic) [Example 114, rac-(2′S,3′R,4′R,5′R)-6-chloro-4′-(3-chloro-5-fluoro-phenyl)-2′-(2,2-dimethyl-propyl)-2-oxo-1,2-dihydro-spiro[indole-3,3′-pyrrolidine]-5′-carboxylic acid (4-cyano-2-methoxy-phenyl)-amide]",12
3,"COc1cc(C(N)=O)ccc1NC(=O)[C@@H]1N[C@@H](CC(C)(C)C)[C@@]2(C(=O)Nc3cc(Cl)ccc32)[C@H]1c1cc(F)cc(Cl)c1 (racemic) [Example 115, rac-(2′S,3′R,4′R,5′R)-6-chloro-4′-(3-chloro-5-fluoro-phenyl)-2′-(2,2-dimethyl-propyl)-2-oxo-1,2-dihydro-spiro[indole-3,3′-pyrrolidine]-5′-carboxylic acid (4-carbamoyl-2-methoxy-phenyl)-amide]",6
4,"COc1cc(C#N)ccc1NC(=O)[C@@H]1N[C@@H](CC(C)(C)C)[C@@]2(C(=O)Nc3cc(Cl)ccc32)[C@H]1c1cccc(Br)c1F (racemic) [Example 116, rac-(2′S,3′R,4′S,5′R)-4′-(3-bromo-2-fluoro-phenyl)-6-chloro-2′-(2,2-dimethyl-propyl)-2-oxo-1,2-dihydro-spiro[indole-3,3′-pyrrolidine]-5′-carboxylic acid (4-cyano-2-methoxy-phenyl)-amide]",15
5,"COc1cc(C(N)=O)ccc1NC(=O)[C@@H]1N[C@@H](CC(C)(C)C)[C@@]2(C(=O)Nc3cc(Cl)ccc32)[C@H]1c1cccc(Br)c1F (racemic) [Example 117, rac-(2′S,3′R,4′S,5′R)-4′-(3-bromo-2-fluoro-phenyl)-6-chloro-2′-(2,2-dimethyl-propyl)-2-oxo-1,2-dihydro-spiro[indole-3,3′-pyrrolidine]-5′-carboxylic acid (4-carbamoyl-2-methoxy-phenyl)-amide]",7
6,"COc1cc(C#N)ccc1NC(=O)[C@@H]1N[C@@H](CC(C)(C)C)[C@@]2(C(=O)Nc3cc(Br)ccc32)[C@H]1c1cccc(Cl)c1F (racemic) [Example 118, rac-(2′S,3′R,4′S,5′R)-6-bromo-4′-(3-chloro-2-fluoro-phenyl)-2′-(2,2-dimethyl-propyl)-2-oxo-1,2-dihydro-spiro[indole-3,3′-pyrrolidine]-5′-carboxylic acid (4-cyano-2-methoxy-phenyl)-amide]",11
7,"COc1cc(C(N)=O)ccc1NC(=O)[C@@H]1N[C@@H](CC(C)(C)C)[C@@]2(C(=O)Nc3cc(Br)ccc32)[C@H]1c1cccc(Cl)c1F (racemic) [Example 119, rac-(2′S,3′R,4′S,5′R)-6-bromo-4′-(3-chloro-2-fluoro-phenyl)-2′-(2,2-dimethyl-propyl)-2-oxo-1,2-dihydro-spiro[indole-3,3′-pyrrolidine]-5′-carboxylic acid (4-carbamoyl-2-methoxy-phenyl)-amide]",7
8,"COC(=O)c1ccc(NC(=O)[C@@H]2N[C@@H](CC(C)(C)C)[C@@]3(C(=O)Nc4cc(Br)ccc43)[C@H]2c2cccc(Cl)c2F)c(OC)c1 (racemic) [Example 122, rac-4-{[(2′S,3′R,4′S,5′R)-6-bromo-4′-(3-chloro-2-fluoro-phenyl)-2′-(2,2-dimethyl-propyl)-2-oxo-1,2-dihydro-spiro[indole-3,3′-pyrrolidine]-5′-carbonyl]-amino}-3-methoxy-benzoic acid methyl ester]",13
9,"COc1cc(C(=O)O)ccc1NC(=O)[C@@H]1N[C@@H](CC(C)(C)C)[C@@]2(C(=O)Nc3cc(Br)ccc32)[C@H]1c1cccc(Cl)c1F (racemic) [Example 123, rac-4-{[(2′S,3′R,4′S,5′R)-6-bromo-4′-(3-chloro-2-fluoro-phenyl)-2′-(2,2-dimethyl-propyl)-2-oxo-1,2-dihydro-spiro[indole-3,3′-pyrrolidine]-5′-carbonyl]-amino}-3-methoxy-benzoic acid]",6
10,"COC(=O)c1ccc(NC(=O)[C@@H]2N[C@@H](CC(C)(C)C)[C@@]3(C(=O)Nc4cc(Cl)ccc43)[C@H]2c2cc(F)cc(Cl)c2)c(OC)c1 (racemic) [Example 124, rac-4-{[(2′S,3′R,4′R,5′R)-6-chloro-4′-(3-chloro-5-fluoro-phenyl)-2′-(2,2-dimethyl-propyl)-2-oxo-1,2-dihydro-spiro[indole-3,3′-pyrrolidine]-5′-carbonyl]-amino}-3-methoxy-benzoic acid methyl ester]",15
11,"COc1cc(C(=O)O)ccc1NC(=O)[C@@H]1N[C@@H](CC(C)(C)C)[C@@]2(C(=O)Nc3cc(Cl)ccc32)[C@H]1c1cc(F)cc(Cl)c1 (racemic) [Example 125, rac-4-{[(2′S,3′R,4′R,5′R)-6-chloro-4′-(3-chloro-5-fluoro-phenyl)-2′-(2,2-dimethyl-propyl)-2-oxo-1,2-dihydro-spiro[indole-3,3′-pyrrolidine]-5′-carbonyl]-amino}-3-methoxy-benzoic acid]",7
12,"COC(=O)c1ccc(NC(=O)[C@@H]2N[C@@H](CC(C)(C)C)[C@@]3(C(=O)Nc4cc(Cl)ccc43)[C@H]2c2ccc(F)c(Cl)c2)c(OC)c1 (racemic) [Example 126, rac-4-{[(2′S,3′R,4′R,5′R)-6-chloro-4′-(3-chloro-4-fluoro-phenyl)-2′-(2,2-dimethyl-propyl)-2-oxo-1,2-dihydro-spiro[indole-3,3′-pyrrolidine]-5′-carbonyl]amino}-3-methoxy-benzoic acid methyl ester]",29
13,"CCOc1cc(C(=O)OC)ccc1NC(=O)[C@@H]1N[C@@H](CC(C)(C)C)[C@@]2(C(=O)Nc3cc(Cl)ccc32)[C@H]1c1cccc(Cl)c1F (racemic) [Example 129, rac-4-{[(2′S,3′R,4′S,5′R)-6-chloro-4′-(3-chloro-2-fluoro-phenyl)-2′-(2,2-dimethyl-propyl)-2-oxo-1,2-dihydro-spiro[indole-3,3′-pyrrolidine]-5′-carbonyl]-amino}-3-ethoxy-benzoic acid methyl ester]",10
14,"CCOc1cc(C(=O)O)ccc1NC(=O)[C@@H]1N[C@@H](CC(C)(C)C)[C@@]2(C(=O)Nc3cc(Cl)ccc32)[C@H]1c1cccc(Cl)c1F (racemic) [Example 130, rac-4-{[(2′S,3′R,4′S,5′R)-6-chloro-4′-(3-chloro-2-fluoro-phenyl)-2′-(2,2-dimethyl-propyl)-2-oxo-1,2-dihydro-spiro[indole-3,3′-pyrrolidine]-5′-carbonyl]amino}-3-ethoxy-benzoic acid]",11
15,"CCOc1cc(C(N)=O)ccc1NC(=O)[C@@H]1N[C@@H](CC(C)(C)C)[C@@]2(C(=O)Nc3cc(Cl)ccc32)[C@H]1c1cccc(Cl)c1F (racemic) [Example 131, rac-(2′S,3′R,4′S,5′R)-6-chloro-4′-(3-chloro-2-fluoro-phenyl)-2′-(2,2-dimethyl-propyl)-2-oxo-1,2-dihydro-spiro[indole-3,3′-pyrrolidine]-5′-carboxylic acid (4-carbamoyl-2-ethoxy-phenyl)-amide]",14
